Like-named read-outs stand apart in the source and are kept apart here.
Assays:
[1] = biological target: recombinant human Mcl-1 (residues 171-327) / Bim interaction (Homo sapiens (Human), UniProt Q07820); assay: biochemical; format: binding; conditions: read-out: Mcl-1 HTRF IC50
[2] = test system: human multiple myeloma cell line, OPM-2; assay: Cell viability assay (OPM-2 10 FBS), CellTiter-Glo; format: cell-based
Method in brief: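 Steps: plate cells at 3000/well in 10% FBS growth medium, add serially diluted compound, incubate 16 h at 37 °C with 5% CO2, add detection reagent and read luminescence after 25 min. A 4-parameter logistic model gives IC50.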

[3] = TR-FRET, Mcl-1(171-327) / biotin-Bim (51-76)
[4] = Homo sapiens, OPM-2, 16 h, read-out: OPM-2 10% FBS IC50 IP, OPM-2 cells, 10% FBS, 16 h, CellTiter-Glo

Sequence of recombinant human Mcl-1 (residues 171-327) / Bim interaction (Q07820 171-327): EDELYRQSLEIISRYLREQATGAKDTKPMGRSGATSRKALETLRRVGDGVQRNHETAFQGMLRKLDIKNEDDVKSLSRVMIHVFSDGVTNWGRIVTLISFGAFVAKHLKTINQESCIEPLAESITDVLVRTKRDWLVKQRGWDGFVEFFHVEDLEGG

C[C@@H]1[C@@H](C)CCC[C@](O)(c2ccccn2)[C@@H]2CC[C@H]2CN2C[C@@]3(CCCc4cc(Cl)ccc43)COc3ccc(cc32)C(=O)NS1(=O)=O [Example 100469, (1S,3′R,6′R,7′R,11′S,12′R)-6-chloro-7′-hydroxy-11′,12′-dimethyl-7′-(2-pyridinyl)-3,4-dihydro-2H,15′H-spiro[naphthalene-1,22′-[20]oxa[13]thia[1,14]diazatetracyclo [14.7.2.0~3,6~.0~19,24~]pentacosa[16,18,24]trien]-15′-one 13′,13′-dioxide]
IC50 [1, 3]: 0.085 nM
IC50 [2, 4]: 325 nM

CO[C@]1(CCN2CCN3CCCC[C@@H]3C2)CCC[C@H](C)[C@@H](C)S(=O)(=O)NC(=O)c2ccc3c(c2)N(C[C@@H]2CC[C@H]21)C[C@@]1(CCCc2cc(Cl)ccc21)CO3 [Example 100592, (1S,3′R,6′R,7′S,11′S,12′R)-6-chloro-7′-methoxy-11′,12′-dimethyl-7′-(2-((9aR)-octahydro-2H-pyrido[1,2-a]pyrazin-2-yl)ethyl)-3,4-dihydro-2H,15′H-spiro[naphthalene-1,22′-[20]oxa[13]thia[1,14]diazatetracyclo [14.7.2.0~3,6~.0~19,24~]pentacosa[16,18,24]trien]-15′-one 13′,13′-dioxide]
IC50 [1, 3]: 0.275 nM
IC50 [2, 4]: 139 nM

C[C@@H]1[C@@H](C)CCCC2(OCCO2)[C@@H]2CC[C@H]2CN2C[C@@]3(CCCc4cc(Cl)ccc43)COc3ccc(cc32)C(=O)NS1(=O)=O [Example 100102, (3′R,6′R,11′S,12′R,22′S)-6″-chloro-11′,12′-dimethyl-3″,4″-dihydro-2″H,15′H-dispiro[1,3-dioxolane-2,7′-[20]oxa[13]thia[1,14]diazatetracyclo [14.7.2.0~3,6~.0~19,24~]pentacosa[16,18,24]triene-22′,1″-naphthalen]-15′-one 13′,13′-dioxide]
IC50 [1, 3]: 0.99 nM
IC50 [2, 4]: 1430 nM

CO[C@@H](C(=O)N(C)C)[C@@]1(O)/C=C/C[C@H](C)[C@@H](C)S(=O)(=O)NC(=O)c2ccc3c(c2)N(C[C@@H]2CC[C@H]21)C[C@@]1(CCCc2cc(Cl)ccc21)CO3 [Example 100286, (2R)-2-((1S,3′R,6′R,7′R,8′E,11′S,12′R)-6-chloro-7′-hydroxy-11′,12′-dimethyl-13′,13′-dioxido-15′-oxo-3,4-dihydro-2H-spiro[naphthalene-1,22′-[20]oxa[13]thia[1,14]diazatetracyclo [14.7.2.0~3,6~.0~19,24~]pentacosa[8,16,18,24]tetraen]-7′-yl)-2-methoxy-N,N-dimethylethanamide]
IC50 [1, 3]: 0.471 nM
IC50 [2, 4]: 1580 nM

CCO[C@@]1(CN2CCN(C3COC3)CC2)/C=C/C[C@H](C)[C@@H](C)S(=O)(=O)NC(=O)c2ccc3c(c2)N(C[C@@H]2CC[C@H]21)C[C@@]1(CCCc2cc(Cl)ccc21)CO3 [Example 106, (1S,3′R,6′R,7′S,8′E,11′S,12′R)-6-chloro-7′-ethoxy-11′12′-dimethyl-7′-((4-(3-oxetanyl)-1-piperazinyl)methyl)-3,4-dihydro-2H,15′H-spiro[naphthalene-1,22′-[20]oxa[13]thia[1,14]diazatetracyclo [14.7.2.0~3,6~.0~19,24~]pentacosa[8,16,18,24]tetraen]-15′-one 13′,13′-dioxide]
IC50 ([1]; 0.1 nM Mcl-1(171-327), 0.05 nM biotin-Bim (51-76)): 0.299 nM
IC50 ([2]; Homo sapiens, OPM-2, 16 h, read-out: OPM-2 10% FBS IC50 IP, OPM-2 cells, 10% FBS, 16 h incubation): 308 nM

C[C@@H]1[C@@H](C)CCC[C@@](C)(O)[C@@H]2CC[C@H]2CN2C[C@@]3(CCCc4cc(Cl)ccc43)COc3ccc(cc32)C(=O)NS1(=O)=O (single isomer, unassigned) [Example 100048]
IC50 [1, 3]: 0.187 nM
IC50 [2, 4]: 551 nM

C#C[C@]1(OCCN2CCOCC2)/C=C/C[C@H](C)[C@@H](C)S(=O)(=O)NC(=O)c2ccc3c(c2)N(C[C@@H]2CC[C@H]21)C[C@@]1(CCCc2cc(Cl)ccc21)CO3 [Example 100504, (1S,3′R,6′R,7′S,8′E,11′S,12′R)-6-chloro-7′-ethynyl-11′,12′-dimethyl-7′-(2-(4-morpholinyl)ethoxy)-3,4-dihydro-2H,15′H-spiro[naphthalene-1,22′-[20]oxa[13]thia[1,14]diazatetracyclo [14.7.2.0~3,6~.0~19,24~]pentacosa[8,16,18,24]tetraen]-15′-one 13′,13′-dioxide]
IC50 [1, 3]: 0.803 nM
IC50 [2, 4]: 1890 nM

C[C@@H]1[C@@H](C)C/C=C/[C@@](O)([C@@H]2CCN(C)C2=O)[C@@H]2CC[C@H]2CN2C[C@@]3(CCCc4cc(Cl)ccc43)COc3ccc(cc32)C(=O)NS1(=O)=O [Example 100106, (1S,3′R,6′R,7′S,8′E,11′S,12′R)-6-chloro-7′-hydroxy-11′,12′-dimethyl-7′-((3S)-1-methyl-2-oxo-3-pyrrolidinyl)-3,4-dihydro-2H,15′H-spiro[naphthalene-1,22′-[20]oxa[13]thia[1,14]diazatetracyclo [14.7.2.0~3,6~.0~19,24~]pentacosa[8,16,18,24]tetraen]-15′-one 13′,13′-dioxide]
IC50 [1, 3]: 0.143 nM
IC50 ([2]; read-out: OPM-2 10% FBS IC50 IP, OPM-2 cells, 10% FBS, 16 h, CellTiter-Glo): 121 nM

C[C@@H]1[C@@H](C)C/C=C/[C@](O)(COCCN2CCOCC2)[C@@H]2CC[C@H]2CN2C[C@@]3(CCCc4cc(Cl)ccc43)COc3ccc(cc32)C(=O)NS1(=O)=O [Example 100356, (1S,3′R,6′R,7′R,8′E,11′S,12′R)-6-chloro-7′-hydroxy-11′,12′-dimethyl-7′-((2-(4-morpholinyl)ethoxy)methyl)-3,4-dihydro-2H,15′H-spiro[naphthalene-1,22′-[20]oxa[13]thia[1,14]diazatetracyclo [14.7.2.0~3,6~.0~19,24~]pentacosa[8,16,18,24]tetraen]-15′-one 13′,13′-dioxide]
IC50 [1, 3]: 0.084 nM
IC50 [2, 4]: 71 nM

COC(=O)[C@]1(O)/C=C/C[C@H](C)[C@@H](C)S(=O)(=O)NC(=O)c2ccc3c(c2)N(C[C@@H]2CC[C@H]21)C[C@@]1(CCCc2cc(Cl)ccc21)CO3 [Example 100061, methyl (1S,3′R,6′R,7′S,8′E,11′S,12′R)-6-chloro-7′-hydroxy-11′,12′-dimethyl-15′-oxo-3,4-dihydro-2H-spiro[naphthalene-1,22′-[20]oxa[13]thia[1,14]diazatetracyclo [14.7.2.0~3,6~.0~19,24~]pentacosa[8,16,18,24]tetraene]-7′-carboxylate 13′,13′-dioxide]
IC50 [1, 3]: 0.78 nM
IC50 [2, 4]: 529 nM

CO[C@@]1(C#CCN2CCN3CCOC[C@@H]3C2)/C=C/C[C@H](C)[C@@H](C)S(=O)(=O)NC(=O)c2ccc3c(c2)N(C[C@@H]2CC[C@H]21)C[C@@]1(CCCc2cc(Cl)ccc21)CO3 [Example 100518, (1S,3′R,6′R,7′S,8′E,11′S,12′R)-6-chloro-7′-(3-((9aS)-hexahydropyrazino[2,1-c][1,4]oxazin-8(1H)-yl)-1-propyn-1-yl)-7′-methoxy-11′,12′-dimethyl-3,4-dihydro-2H,15′H-spiro[naphthalene-1,22′-[20]oxa[13]thia[1,14]diazatetracyclo [14.7.2.0~3,6~.0~19,24~]pentacosa[8,16,18,24]tetraen]-15′-one 13′,13′-dioxide]
IC50 [1, 3]: 0.427 nM
IC50 [2, 4]: 668 nM

CO[C@@]1(C2SCCCS2)CCC[C@H](C)[C@@H](C)S(=O)(=O)NC(=O)c2ccc3c(c2)N(C[C@@H]2CC[C@H]21)C[C@@]1(CCCc2cc(Cl)ccc21)CO3 [Example 100249, (1S,3′R,6′R,7′S,11′S,12′R)-6-chloro-7′-(1,3-dithian-2-yl)-7′-methoxy-11′,12′-dimethyl-3,4-dihydro-2H,15′H-spiro[naphthalene-1,22′-[20]oxa[13]thia[1,14]diazatetracyclo [14.7.2.0~3,6~.0~19,24~]pentacosa[16,18,24]trien]-15′-one 13′,13′-dioxide]
IC50 [1, 3]: 2.99 nM
IC50 [2, 4]: 2270 nM

CO[C@]1(CS(C)(=O)=O)/C=C/C[C@H](C)[C@@H](C)S(=O)(=O)NC(=O)c2ccc3c(c2)N(C[C@@H]2CC[C@H]21)C[C@@]1(CCCc2cc(Cl)ccc21)CO3 [Example 100492, (1S,3′R,6′R,7′R,8′E,11′S,12′R)-6-chloro-7′-methoxy-11′,12′-dimethyl-7′-((methylsulfonyl)methyl)-3,4-dihydro-2H,15′H-spiro[naphthalene-1,22′-[20]oxa[13]thia[1,14]diazatetracyclo [14.7.2.0~3,6~.0~19,24~]pentacosa[8,16,18,24]tetraen]-15′-one 13′,13′-dioxide]
IC50 [1, 3]: 0.749 nM
IC50 [2, 4]: 436 nM

C[C@@H]1[C@@H](C)CCC[C@@](C=O)(CN2CCOCC2)[C@@H]2CC[C@H]2CN2C[C@@]3(CCCc4cc(Cl)ccc43)COc3ccc(cc32)C(=O)NS1(=O)=O [Example 100336, (1S,3′R,6′R,7′S,11′S,12′R)-6-chloro-11′,12′-dimethyl-7′-(4-morpholinylmethyl)-15′-oxo-3,4-dihydro-2H-spiro[naphthalene-1,22′-[20]oxa[13]thia[1,14]diazatetracyclo [14.7.2.0~3,6~.0~19,24~]pentacosa[16,18,24]triene]-7′-carbaldehyde 13′,13′-dioxide]
IC50 [1]: 1.12 nM
IC50 [2, 4]: 1810 nM

C[C@@H]1[C@@H](C)C/C=C/[C@](O)(c2nccn2C)[C@@H]2CC[C@H]2CN2C[C@@]3(CCCc4cc(Cl)ccc43)COc3ccc(cc32)C(=O)NS1(=O)=O [Example 100186, (1S,3′R,6′R,7′R,8′E,11′S,12′R)-6-chloro-7′-hydroxy-11′,12′-dimethyl-7′-(1-methyl-1H-imidazol-2-yl)-3,4-dihydro-2H,15′H-spiro[naphthalene-1,22′-[20]oxa[13]thia[1,14]diazatetracyclo [14.7.2.0~3,6~.0~19,24~]pentacosa[8,16,18,24]tetraen]-15′-one 13′,13′-dioxide]
IC50 [1, 3]: 0.377 nM
IC50 [2, 4]: 312 nM

Reference: patent US10821115B2, “Compounds that inhibit Mcl-1 protein” (priority 2017, dated 2020)
